Among the data in ChEMBL document CHEMBL3627608, “Crystal structures of human RIP2 kinase catalytic domain complexed with ATP-competitive inhibitors: Foundations for understanding inhibitor selectivity” (Bioorg Med Chem, 2015) are inhibition values, retold here.

Usually inhibition stands for the relative decrease from the control value, in per cent.

For assay [1], the target named is T1, Ephrin type-B receptor 4 (Homo sapiens) (UniProt P54760).
T1 sequence (whole entry): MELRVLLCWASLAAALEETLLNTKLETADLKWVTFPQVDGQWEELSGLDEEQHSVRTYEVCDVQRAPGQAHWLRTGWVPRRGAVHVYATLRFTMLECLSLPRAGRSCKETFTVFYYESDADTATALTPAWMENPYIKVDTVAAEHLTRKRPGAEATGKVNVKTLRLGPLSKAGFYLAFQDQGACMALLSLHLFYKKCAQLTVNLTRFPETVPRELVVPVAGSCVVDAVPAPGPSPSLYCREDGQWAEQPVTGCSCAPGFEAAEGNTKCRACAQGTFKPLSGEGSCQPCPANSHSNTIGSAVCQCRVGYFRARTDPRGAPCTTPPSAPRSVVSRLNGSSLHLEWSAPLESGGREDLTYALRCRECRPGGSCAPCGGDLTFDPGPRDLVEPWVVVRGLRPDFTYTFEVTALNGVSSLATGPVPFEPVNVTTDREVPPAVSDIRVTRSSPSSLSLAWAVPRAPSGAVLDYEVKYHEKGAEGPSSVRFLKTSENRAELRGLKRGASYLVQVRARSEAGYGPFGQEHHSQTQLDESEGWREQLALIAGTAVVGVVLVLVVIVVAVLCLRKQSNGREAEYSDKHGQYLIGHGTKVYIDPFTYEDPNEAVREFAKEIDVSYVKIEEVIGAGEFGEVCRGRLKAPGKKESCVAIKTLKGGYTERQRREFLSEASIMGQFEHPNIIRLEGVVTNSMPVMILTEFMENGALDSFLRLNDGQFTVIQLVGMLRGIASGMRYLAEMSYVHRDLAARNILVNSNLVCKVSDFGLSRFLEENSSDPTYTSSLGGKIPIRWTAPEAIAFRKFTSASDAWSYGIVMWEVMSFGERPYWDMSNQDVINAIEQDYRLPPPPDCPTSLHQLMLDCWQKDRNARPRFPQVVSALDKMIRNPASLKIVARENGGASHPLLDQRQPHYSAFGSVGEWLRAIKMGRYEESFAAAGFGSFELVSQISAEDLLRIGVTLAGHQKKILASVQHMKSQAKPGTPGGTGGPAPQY
Briefly: Inhibition of EPHB4 (unknown origin) at 10 uM after 120 mins P33 radiolabeled kinase activity assay.

The target of assay [2] is Receptor-type tyrosine-protein kinase FLT3 (Homo sapiens) (UniProt P36888). Briefly: Inhibition of FLT3 (unknown origin) at 10 uM after 120 mins P33 radiolabeled kinase activity assay.
Assay [3] concerns the target cAMP-dependent protein kinase (PKA) (Homo sapiens) (UniProt P22694+P17612+P22612). The assay is described as follows: Inhibition of PKA (unknown origin) at 10 uM after 120 mins P33 radiolabeled kinase activity assay. It counts as protein assay.
The species entered for the next assay is Homo sapiens. Briefly: Inhibition of PKG1alpha (unknown origin) at 10 uM after 120 mins P33 radiolabeled kinase activity assay.
Assay [4] deals with Mitogen-activated protein kinase 8 (Homo sapiens) (UniProt P45983). The assay is described as follows: Inhibition of JNK1 (unknown origin) at 10 uM after 120 mins P33 radiolabeled kinase activity assay.
For assay [5], the target named is Maternal embryonic leucine zipper kinase (Homo sapiens) (UniProt Q14680). The assay is described as follows: Inhibition of MELK (unknown origin) at 10 uM after 120 mins P33 radiolabeled kinase activity assay.
The target in assay [6] is Mitogen-activated protein kinase kinase kinase 11 (Homo sapiens) (UniProt Q16584). Briefly: Inhibition of MLK3 (unknown origin) at 10 uM after 120 mins P33 radiolabeled kinase activity assay.
For assay [7], the target named is Serine/threonine-protein kinase 32B (Homo sapiens) (UniProt Q9NY57). The assay is described as follows: Inhibition of STK32B (unknown origin) at 10 uM after 120 mins P33 radiolabeled kinase activity assay.
The target of assay [8] is RAC-beta serine/threonine-protein kinase (Homo sapiens) (UniProt P31751). The assay is described as follows: Inhibition of AKT2 (unknown origin) at 10 uM after 120 mins P33 radiolabeled kinase activity assay.
The target of assay [9] is T2, Testis-specific serine/threonine-protein kinase 3 (Homo sapiens) (UniProt Q96PN8).
T2 sequence (whole entry): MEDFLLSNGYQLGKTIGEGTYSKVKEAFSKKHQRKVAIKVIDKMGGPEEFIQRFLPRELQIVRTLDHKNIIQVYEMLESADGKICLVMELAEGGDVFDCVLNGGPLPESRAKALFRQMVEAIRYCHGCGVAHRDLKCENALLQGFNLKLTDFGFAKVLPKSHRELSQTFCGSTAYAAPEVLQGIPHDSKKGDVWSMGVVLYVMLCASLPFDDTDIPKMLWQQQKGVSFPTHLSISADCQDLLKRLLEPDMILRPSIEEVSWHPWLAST
The assay is described as follows: Inhibition of TSSK3 (unknown origin) at 10 uM after 120 mins P33 radiolabeled kinase activity assay.

The target in assay [10] is Death-associated protein kinase 3 (Homo sapiens) (UniProt O43293). The assay is described as follows: Inhibition of ZIPK (unknown origin) at 10 uM after 120 mins P33 radiolabeled kinase activity assay.
Assay [11] has as its target Serine/threonine-protein kinase NIM1 (Homo sapiens) (UniProt Q8IY84). Briefly: Inhibition of NIM1 (unknown origin) at 10 uM after 120 mins P33 radiolabeled kinase activity assay.
The target in assay [12] is Tyrosine-protein kinase Blk (Homo sapiens) (UniProt P51451). The assay is described as follows: Inhibition of BLK (unknown origin) at 10 uM after 120 mins P33 radiolabeled kinase activity assay.
In assay [13] the target is Calcium/calmodulin-dependent protein kinase type 1B (Homo sapiens) (UniProt Q6P2M8). The assay is described as follows: Inhibition of CAMK1beta (unknown origin) at 10 uM after 120 mins P33 radiolabeled kinase activity assay.
Assay [14] addresses Cyclin-dependent kinase 5/CDK5 activator 1 (Homo sapiens) (UniProt Q00535+Q15078). Briefly: Inhibition of CDK5/p35 (unknown origin) at 10 uM after 120 mins P33 radiolabeled kinase activity assay. The class given is protein-complex assay.
Assay [15] concerns the target Casein kinase I isoform gamma-3 (Homo sapiens) (UniProt Q9Y6M4). The assay is described as follows: Inhibition of CK1gamma3 (unknown origin) at 10 uM after 120 mins P33 radiolabeled kinase activity assay.

Sequence of Mitogen-activated protein kinase 8 (Homo sapiens) (P45983 whole entry): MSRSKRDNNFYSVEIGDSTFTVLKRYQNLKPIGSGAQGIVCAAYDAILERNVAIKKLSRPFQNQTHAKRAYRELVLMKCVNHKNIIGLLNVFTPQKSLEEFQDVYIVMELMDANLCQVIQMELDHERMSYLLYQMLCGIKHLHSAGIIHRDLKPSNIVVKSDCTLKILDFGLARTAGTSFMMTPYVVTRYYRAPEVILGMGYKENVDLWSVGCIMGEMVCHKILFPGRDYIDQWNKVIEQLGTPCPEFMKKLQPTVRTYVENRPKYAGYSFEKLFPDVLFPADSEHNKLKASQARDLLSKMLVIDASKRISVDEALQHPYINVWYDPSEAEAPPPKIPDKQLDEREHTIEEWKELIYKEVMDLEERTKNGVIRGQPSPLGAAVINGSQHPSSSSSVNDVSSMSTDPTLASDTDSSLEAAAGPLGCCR
Sequence of RAC-beta serine/threonine-protein kinase (Homo sapiens) (P31751 whole entry): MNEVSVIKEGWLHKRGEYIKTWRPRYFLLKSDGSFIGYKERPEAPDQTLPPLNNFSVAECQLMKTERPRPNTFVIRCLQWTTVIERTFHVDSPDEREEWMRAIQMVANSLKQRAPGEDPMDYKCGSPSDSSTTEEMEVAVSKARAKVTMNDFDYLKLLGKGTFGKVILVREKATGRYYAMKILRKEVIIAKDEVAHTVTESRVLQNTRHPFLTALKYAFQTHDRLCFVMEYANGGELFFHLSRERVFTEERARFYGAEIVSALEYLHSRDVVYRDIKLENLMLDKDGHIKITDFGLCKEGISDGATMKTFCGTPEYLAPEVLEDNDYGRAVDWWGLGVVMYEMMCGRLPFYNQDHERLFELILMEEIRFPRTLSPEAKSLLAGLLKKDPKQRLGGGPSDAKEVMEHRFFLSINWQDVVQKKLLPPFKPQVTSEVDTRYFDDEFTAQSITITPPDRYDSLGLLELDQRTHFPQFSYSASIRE
Sequence of Receptor-type tyrosine-protein kinase FLT3 (Homo sapiens) (P36888 whole entry): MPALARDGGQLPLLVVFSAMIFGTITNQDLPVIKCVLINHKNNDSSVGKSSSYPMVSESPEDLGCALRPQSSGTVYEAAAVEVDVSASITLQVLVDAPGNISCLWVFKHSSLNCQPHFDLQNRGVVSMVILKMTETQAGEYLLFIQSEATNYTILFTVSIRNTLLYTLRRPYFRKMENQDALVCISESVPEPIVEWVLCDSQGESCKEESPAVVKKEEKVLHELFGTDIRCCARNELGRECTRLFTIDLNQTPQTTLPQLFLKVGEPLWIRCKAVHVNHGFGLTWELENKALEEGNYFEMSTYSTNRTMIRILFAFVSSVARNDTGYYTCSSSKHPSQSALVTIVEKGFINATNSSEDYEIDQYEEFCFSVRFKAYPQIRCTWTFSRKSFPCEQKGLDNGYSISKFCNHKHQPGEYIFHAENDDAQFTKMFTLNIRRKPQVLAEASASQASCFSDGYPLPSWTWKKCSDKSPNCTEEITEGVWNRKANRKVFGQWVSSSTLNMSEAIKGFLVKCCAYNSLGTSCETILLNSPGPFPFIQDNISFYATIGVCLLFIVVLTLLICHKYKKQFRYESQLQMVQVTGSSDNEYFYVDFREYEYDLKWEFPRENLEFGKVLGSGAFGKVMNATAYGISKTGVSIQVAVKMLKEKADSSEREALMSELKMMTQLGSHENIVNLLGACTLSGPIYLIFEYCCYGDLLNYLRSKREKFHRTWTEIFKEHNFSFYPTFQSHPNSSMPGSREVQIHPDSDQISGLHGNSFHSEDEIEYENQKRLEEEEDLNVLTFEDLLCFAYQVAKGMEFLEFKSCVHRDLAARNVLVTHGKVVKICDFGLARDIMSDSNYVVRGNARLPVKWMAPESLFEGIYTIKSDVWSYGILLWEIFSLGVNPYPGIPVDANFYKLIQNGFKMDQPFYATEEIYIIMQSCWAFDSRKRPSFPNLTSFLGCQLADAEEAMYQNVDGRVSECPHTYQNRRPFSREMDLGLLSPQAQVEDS
Sequence of Calcium/calmodulin-dependent protein kinase type 1B (Homo sapiens) (Q6P2M8 whole entry): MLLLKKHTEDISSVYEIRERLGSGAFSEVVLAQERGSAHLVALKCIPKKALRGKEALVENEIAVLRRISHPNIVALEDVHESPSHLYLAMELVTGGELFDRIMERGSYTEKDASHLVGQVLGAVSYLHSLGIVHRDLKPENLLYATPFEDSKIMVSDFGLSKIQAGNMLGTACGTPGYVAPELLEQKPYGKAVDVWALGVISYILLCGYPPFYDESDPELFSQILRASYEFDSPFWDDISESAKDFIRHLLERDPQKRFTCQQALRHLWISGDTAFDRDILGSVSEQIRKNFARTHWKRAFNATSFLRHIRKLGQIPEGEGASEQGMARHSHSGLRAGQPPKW
Sequence of Maternal embryonic leucine zipper kinase (Homo sapiens) (Q14680 whole entry, looked up): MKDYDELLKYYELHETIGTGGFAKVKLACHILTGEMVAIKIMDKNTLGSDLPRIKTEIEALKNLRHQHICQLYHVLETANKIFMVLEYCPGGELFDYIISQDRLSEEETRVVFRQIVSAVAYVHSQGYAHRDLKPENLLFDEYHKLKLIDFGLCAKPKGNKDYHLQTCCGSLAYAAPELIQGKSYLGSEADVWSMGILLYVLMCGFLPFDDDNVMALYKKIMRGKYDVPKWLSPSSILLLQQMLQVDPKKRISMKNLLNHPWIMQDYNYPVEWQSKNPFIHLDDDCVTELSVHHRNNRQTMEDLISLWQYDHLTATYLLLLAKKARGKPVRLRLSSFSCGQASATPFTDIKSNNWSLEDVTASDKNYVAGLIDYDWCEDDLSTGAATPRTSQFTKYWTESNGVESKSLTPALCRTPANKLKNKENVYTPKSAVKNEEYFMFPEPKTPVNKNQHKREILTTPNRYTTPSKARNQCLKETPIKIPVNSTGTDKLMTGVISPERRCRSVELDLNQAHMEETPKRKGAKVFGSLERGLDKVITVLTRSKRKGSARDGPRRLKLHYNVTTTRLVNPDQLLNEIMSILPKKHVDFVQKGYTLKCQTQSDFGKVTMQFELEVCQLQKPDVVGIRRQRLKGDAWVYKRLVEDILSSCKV
Sequence of Casein kinase I isoform gamma-3 (Homo sapiens) (Q9Y6M4 whole entry, looked up, canonical isoform): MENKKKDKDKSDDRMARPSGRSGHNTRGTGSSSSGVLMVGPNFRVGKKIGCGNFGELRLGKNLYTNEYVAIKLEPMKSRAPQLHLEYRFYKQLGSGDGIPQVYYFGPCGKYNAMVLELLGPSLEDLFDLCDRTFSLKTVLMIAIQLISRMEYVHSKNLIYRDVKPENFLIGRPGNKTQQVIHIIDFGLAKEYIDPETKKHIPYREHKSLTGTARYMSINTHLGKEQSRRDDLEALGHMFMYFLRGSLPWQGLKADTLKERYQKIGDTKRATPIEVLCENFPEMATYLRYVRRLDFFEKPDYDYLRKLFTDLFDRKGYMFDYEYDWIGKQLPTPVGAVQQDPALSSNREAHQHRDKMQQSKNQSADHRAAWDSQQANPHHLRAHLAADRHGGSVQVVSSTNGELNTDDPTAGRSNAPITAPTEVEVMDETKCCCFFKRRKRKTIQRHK
Sequence of Tyrosine-protein kinase Blk (Homo sapiens) (P51451 2-505 limits assumed): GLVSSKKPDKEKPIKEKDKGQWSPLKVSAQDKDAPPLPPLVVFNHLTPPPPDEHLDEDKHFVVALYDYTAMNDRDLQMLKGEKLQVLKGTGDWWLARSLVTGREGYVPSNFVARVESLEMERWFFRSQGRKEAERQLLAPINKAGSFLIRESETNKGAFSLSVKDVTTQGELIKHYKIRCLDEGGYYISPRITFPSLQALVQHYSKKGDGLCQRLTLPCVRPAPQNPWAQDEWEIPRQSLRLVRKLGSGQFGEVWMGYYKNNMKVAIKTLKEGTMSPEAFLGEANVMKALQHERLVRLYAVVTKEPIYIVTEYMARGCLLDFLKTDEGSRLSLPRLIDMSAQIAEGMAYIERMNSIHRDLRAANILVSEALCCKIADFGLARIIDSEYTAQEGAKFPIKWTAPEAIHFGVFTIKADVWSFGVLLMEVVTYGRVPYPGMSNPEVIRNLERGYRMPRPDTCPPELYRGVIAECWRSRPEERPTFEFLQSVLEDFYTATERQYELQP
Sequence of Serine/threonine-protein kinase 32B (Homo sapiens) (Q9NY57 whole entry): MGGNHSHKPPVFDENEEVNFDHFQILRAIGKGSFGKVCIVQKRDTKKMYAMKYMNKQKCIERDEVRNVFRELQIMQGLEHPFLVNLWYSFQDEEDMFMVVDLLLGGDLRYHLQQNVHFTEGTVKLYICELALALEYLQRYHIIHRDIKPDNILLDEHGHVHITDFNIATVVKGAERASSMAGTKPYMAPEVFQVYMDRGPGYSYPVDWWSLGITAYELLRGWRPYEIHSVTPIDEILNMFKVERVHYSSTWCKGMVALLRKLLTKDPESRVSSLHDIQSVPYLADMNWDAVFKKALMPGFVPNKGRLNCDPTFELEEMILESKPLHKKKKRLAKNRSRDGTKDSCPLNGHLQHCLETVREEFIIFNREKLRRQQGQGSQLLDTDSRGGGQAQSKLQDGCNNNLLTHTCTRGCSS
Sequence of Cyclin-dependent kinase 5/CDK5 activator 1 (Homo sapiens) (Q00535 whole entry, canonical isoform): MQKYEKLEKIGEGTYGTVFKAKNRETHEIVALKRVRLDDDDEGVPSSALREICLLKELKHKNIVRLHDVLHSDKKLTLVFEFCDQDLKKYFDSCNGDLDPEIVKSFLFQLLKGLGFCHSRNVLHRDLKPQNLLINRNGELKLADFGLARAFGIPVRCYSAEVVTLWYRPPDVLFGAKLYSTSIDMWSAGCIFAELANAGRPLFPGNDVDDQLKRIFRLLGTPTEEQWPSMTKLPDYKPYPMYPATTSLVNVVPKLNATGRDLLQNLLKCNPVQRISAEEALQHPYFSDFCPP
Sequence of Cyclin-dependent kinase 5/CDK5 activator 1 (Homo sapiens) (Q15078 99-307 partner limits assumed): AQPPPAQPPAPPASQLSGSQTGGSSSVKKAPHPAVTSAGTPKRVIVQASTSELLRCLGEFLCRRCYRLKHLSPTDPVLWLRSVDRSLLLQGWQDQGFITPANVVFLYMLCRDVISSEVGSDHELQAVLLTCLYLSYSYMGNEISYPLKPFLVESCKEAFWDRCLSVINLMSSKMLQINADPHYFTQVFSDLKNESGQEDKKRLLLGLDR

On to `CS(=O)(=O)c1cccc(Nc2nccc(-c3sc(N4CCOCC4)nc3-c3cccc(NS(=O)(=O)c4c(F)cccc4F)c3)n2)c1`, for which the inhibition was determined as 93.8% in [1]; 95.7% in [2]; 6.72% in assay [3]; 9.43% in the assay filed under Homo sapiens; 31.4% in [4]; 69.3% in [5]. Besides, the inhibition was 92.7% in assay [6]; 24.6% in assay [7]; 21.6% in [8]; 10.5% in assay [9]; 50.7% in assay [10]; 5.74% in [11]. In addition, the inhibition in assay [12] came out at 99.4%; in assay [13], 46.8%; in assay [14], 94.7%; in assay [15], 5.39%.

On to `CC(C)(C)c1cc(NC(=O)Nc2ccc(Oc3ccncc3)cc2)no1`, for which the inhibition in [1] was 96%; in assay [2], 98.6%; in [3], 80.5%; in the assay filed under Homo sapiens, 7.43%; in assay [4], 14.2%; in assay [5], -0.03%. In addition, the inhibition is 60.1% in assay [6]; 9.05% in assay [7]; 20.6% in assay [8]; 11.2% in [9]; 35.6% in [10]; 4.76% in assay [11]. Also, the inhibition in [12] was found to be 65.8%; in assay [13], 9.84%; in assay [14], 57.3%; in assay [15] it was 3.82%.

For the compound `COCCNC(=O)c1ccc2c(c1)nc(-c1cnc(-c3ccc(Cl)cc3)[nH]1)n2CCOC`, the inhibition in assay [1] was 29.3%; in assay [2] it was 27.6%; in [3], 7.76%; in the assay filed under Homo sapiens it was -4.79%; in assay [4], 2.55%; in [5] it was 8.47%. In addition, the inhibition was 6.84% in assay [6]; -6.19% in [7]; 18.9% in assay [8]; 15% in assay [9]; 3.1% in assay [10]; 3.72% in assay [11]. The inhibition in [12] is 34.2%; in assay [13], 2.47%; in assay [14], 0.14%; in [15] it was 0.42%.
